Test results as given in PubChem BioAssay AID248 (DTP/NCI, 2004).
Values joined by “and” are separate entries in the source; they are usually repeats but may differ in a detail not shown here. Equal values may be shown once. Toxic doses and inconclusive results are not listed. Rule as the data show it: active = T/C of 150% or more; inactive = T/C below 125%.

Test system: L1210 leukemia ip in BDF1 mice, survival T/C
Assay: NCI In Vivo Anticancer Drug Screen. Data for tumor model L1210 Leukemia (intraperitoneal) in B6D2F1 (BDF1) mice
Conditions: endpoint: mean survival time, higher = longer survival
Summary of the method: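 Value reflects the ratio of survival in compound-treated mice to survival in vehicle-treated controls, with both groups carrying the same transplanted tumor.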

[1] = dose: 50.0 mg/kg/injection, schedule: Q04DX003 (ip), vehicle: Klucel (hydroxypropylcellulose) (HPC)
[2] = dose: 100.0 mg/kg/injection, schedule: Q01DX001 (ip), vehicle: Klucel (hydroxypropylcellulose) (HPC)
[3] = dose: 100.0 mg/kg/injection, schedule: Q04DX003 (ip), vehicle: Klucel (hydroxypropylcellulose) (HPC)
[4] = dose: 200.0 mg/kg/injection, schedule: Q01DX001 (ip), vehicle: Klucel (hydroxypropylcellulose) (HPC)
[5] = dose: 200.0 mg/kg/injection, schedule: Q04DX003 (ip), vehicle: Klucel (hydroxypropylcellulose) (HPC)
[6] = dose: 25.0 mg/kg/injection, schedule: Q01DX009 (ip), vehicle: saline with Tween-80
[7] = dose: 50.0 mg/kg/injection, schedule: Q01DX009 (ip), vehicle: saline with Tween-80
[8] = dose: 100.0 mg/kg/injection, schedule: Q01DX009 (ip), vehicle: saline with Tween-80
[9] = dose: 400.0 mg/kg/injection, schedule: Q04DX003 (ip), vehicle: Klucel (hydroxypropylcellulose) (HPC)
[10] = dose: 100.0 mg/kg/injection, schedule: Q04DX002 (ip), vehicle: saline with Tween-80
[11] = dose: 200.0 mg/kg/injection, schedule: Q04DX002 (ip), vehicle: saline with Tween-80
[12] = dose: 400.0 mg/kg/injection, schedule: Q01DX001 (ip), vehicle: Klucel (hydroxypropylcellulose) (HPC)
[13] = dose: 100.0 mg/kg/injection, schedule: Q01DX009 (ip), vehicle: Klucel (hydroxypropylcellulose) (HPC)
[14] = dose: 200.0 mg/kg/injection, schedule: Q01DX009 (ip), vehicle: Klucel (hydroxypropylcellulose) (HPC)
[15] = dose: 400.0 mg/kg/injection, schedule: Q01DX009 (ip), vehicle: Klucel (hydroxypropylcellulose) (HPC)
[16] = dose: 100.0 mg/kg/injection, schedule: Q04DX003 (ip), vehicle: saline with Tween-80
[17] = dose: 200.0 mg/kg/injection, schedule: Q04DX003 (ip), vehicle: saline with Tween-80
[18] = dose: 400.0 mg/kg/injection, schedule: Q04DX003 (ip), vehicle: saline with Tween-80
[19] = dose: 75.0 mg/kg/injection, schedule: Q01DX001 (ip), vehicle: carboxymethylcellulose (CMC)
[20] = dose: 150.0 mg/kg/injection, schedule: Q01DX001 (ip), vehicle: carboxymethylcellulose (CMC)

Measured: T/C

Cc1c(N)nc(=S)[nH]c1C(=O)O
inactive: dose: 50.0 mg/kg/injection, schedule: Q01DX001 (ip), vehicle: Klucel (hydroxypropylcellulose) (HPC) 95 % of control | [1] 91 % of control | [2] 97 % of control | [3] 105 % of control | [4] 106 % of control | [5] 94 % of control

O=C(O)C(O)C(O)C(O)C(O)C(O)CO.[Fe] (stereo not drawn)
inactive: dose: 75.0 mg/kg/injection, schedule: Q01DX001 (ip), vehicle: saline 95 % of control

O=C(O)CSCc1ccccc1
inactive: [6] 102 % of control | [7] 95 % of control | [8] 100 % of control and 102 % of control | [3] 94 % of control | [5] 100 % of control | [9] 102 % of control

CCC(COS(=O)(=O)c1ccc(C)cc1)[N+](=O)[O-] (stereo not drawn)
inactive: dose: 25.0 mg/kg/injection, schedule: Q04DX003 (ip), vehicle: Klucel (hydroxypropylcellulose) (HPC) 112 % of control | [1] 96 % of control | [3] 86 % of control

CC12CCCCC1CC(=O)CC2 (stereo not drawn)
inactive: [10] 99 % of control | [11] 86 % of control | dose: 400.0 mg/kg/injection, schedule: Q04DX002 (ip), vehicle: saline with Tween-80 96 % of control

CCOC(=O)c1[nH]c(C)c(/C(=N/NC(N)=O)C(=O)OC)c1C
inactive: [2] 103 % of control | [4] 110 % of control | [12] 98 % of control

C/C(=C\Cl)CN(C)S(=O)(=O)c1ccc(Br)cc1
inactive: dose: 100.0 mg/kg/injection, schedule: Q01DX001 (ip), vehicle: saline with Tween-80 100 % of control and 98 % of control | [13] 94 % of control | dose: 200.0 mg/kg/injection, schedule: Q01DX001 (ip), vehicle: saline with Tween-80 94 % of control and 95 % of control | [14] 89 % of control | dose: 400.0 mg/kg/injection, schedule: Q01DX001 (ip), vehicle: saline with Tween-80 96 % of control and 98 % of control

Cn1c(C2=CC(=O)c3ccccc3C2=O)c(C2=CC(=O)c3ccccc3C2=O)c2ccccc21
inactive: dose: 50.0 mg/kg/injection, schedule: Q01DX001 (ip), vehicle: saline 102 % of control | dose: 100.0 mg/kg/injection, schedule: Q01DX001 (ip), vehicle: saline 98 % of control | dose: 200.0 mg/kg/injection, schedule: Q01DX001 (ip), vehicle: saline 104 % of control | dose: 400.0 mg/kg/injection, schedule: Q01DX001 (ip), vehicle: saline 102 % of control

O=C(NC(CSC(=O)OCc1ccccc1)C(=O)Oc1ccc([N+](=O)[O-])cc1)OCc1ccccc1 (stereo not drawn)
inactive: [13] 104 % of control | [3] 97 % of control | [14] 114 % of control | [5] 100 % of control | [15] 109 % of control | [9] 103 % of control

CCO/C(C)=C(/C(C)=O)C(=O)NC1CCCCC1
inactive: [8] 100 % of control | [16] 101 % of control | dose: 200.0 mg/kg/injection, schedule: Q01DX009 (ip), vehicle: saline with Tween-80 100 % of control | [17] 95 % of control | dose: 400.0 mg/kg/injection, schedule: Q01DX009 (ip), vehicle: saline with Tween-80 102 % of control | [18] 98 % of control

COc1cc(SSc2ccc(N)c(OC)c2)ccc1N
inactive: [19] 105 % of control | [20] 88 % of control

Nc1nc[nH]c(=O)c1NC=O
inactive: dose: 100.0 mg/kg/injection, schedule: Q01DX009 (ip), vehicle: saline 94 % of control | [16] 97 % of control | dose: 200.0 mg/kg/injection, schedule: Q01DX009 (ip), vehicle: saline 100 % of control | [17] 98 % of control | dose: 400.0 mg/kg/injection, schedule: Q01DX009 (ip), vehicle: saline 104 % of control | [18] 101 % of control

CC1(C)CCCC2(C)C(O)C3CCC2C31 (stereo not drawn)
inactive: [2] 96 % of control | [4] 91 % of control | [12] 90 % of control

ClC1OC(Cl)(Cl)C(Cl)(Cl)OC1(Cl)Cl (stereo not drawn)
inactive: [13] 103 % of control | [3] 107 % of control | [14] 93 % of control | [5] 94 % of control | [15] 101 % of control | [9] 96 % of control

CCC(CC)NC(C)CO (stereo not drawn)
inactive: dose: 75.0 mg/kg/injection, schedule: Q01DX001 (ip), vehicle: acid diluted with saline 105 % of control | dose: 150.0 mg/kg/injection, schedule: Q01DX001 (ip), vehicle: acid diluted with saline 103 % of control | dose: 300.0 mg/kg/injection, schedule: Q01DX001 (ip), vehicle: acid diluted with saline 103 % of control

CCOC(=O)Nc1cc(Cl)ccc1C
inactive: [2] 101 % of control | [13] 102 % of control | dose: 100.0 mg/kg/injection, schedule: Q04DX002 (ip), vehicle: Klucel (hydroxypropylcellulose) (HPC) 97 % of control and 100 % of control | [3] 103 % of control | [4] 102 % of control | [14] 102 % of control | dose: 200.0 mg/kg/injection, schedule: Q04DX002 (ip), vehicle: Klucel (hydroxypropylcellulose) (HPC) 100 % of control and 104 % of control | [5] 107 % of control | [12] 111 % of control | [15] 96 % of control | dose: 400.0 mg/kg/injection, schedule: Q04DX002 (ip), vehicle: Klucel (hydroxypropylcellulose) (HPC) 103 % of control and 110 % of control | [9] 96 % of control

CCOC(=O)C(Cc1ccc2ccccc2n1)C(=O)OCC
inactive: [2] 100 % of control | [4] 106 % of control | [12] 100 % of control

CC1(C)S[C@@H]2[C@H](NC=O)C(=O)N2[C@H]1C(=O)OCc1ccccc1
inactive: [19] 90 % of control | [20] 86 % of control

CN1CCC(S)(S)CC1
inactive: dose: 12.5 mg/kg/injection, schedule: Q01DX009 (ip), vehicle: saline with Tween-80 105 % of control | dose: 12.5 mg/kg/injection, schedule: Q04DX003 (ip), vehicle: saline with Tween-80 96 % of control | [6] 93 % of control | dose: 25.0 mg/kg/injection, schedule: Q04DX003 (ip), vehicle: saline with Tween-80 102 % of control | [7] 104 % of control | dose: 50.0 mg/kg/injection, schedule: Q04DX003 (ip), vehicle: saline with Tween-80 106 % of control

CC(=Nc1ccccc1)C1=C(O)C(Cc2ccccc2)NC1=O (stereo not drawn)
inactive: dose: 50.0 mg/kg/injection, schedule: Q01DX001 (ip), vehicle: carboxymethylcellulose (CMC) 101 % of control | dose: 100.0 mg/kg/injection, schedule: Q01DX001 (ip), vehicle: carboxymethylcellulose (CMC) 103 % of control | dose: 178.0 mg/kg/injection, schedule: Q01DX001 (ip), vehicle: carboxymethylcellulose (CMC) 101 % of control and 102 % of control | dose: 200.0 mg/kg/injection, schedule: Q01DX001 (ip), vehicle: carboxymethylcellulose (CMC) 120 % of control | dose: 267.0 mg/kg/injection, schedule: Q01DX001 (ip), vehicle: carboxymethylcellulose (CMC) 101 % of control and 109 % of control | dose: 400.0 mg/kg/injection, schedule: Q01DX001 (ip), vehicle: carboxymethylcellulose (CMC) 101 % of control and 117 % of control

Nc1ccc2ccccc2c1-c1c(N)ccc2ccccc12
inactive: dose: 75.0 mg/kg/injection, schedule: Q04DX002 (ip), vehicle: saline with Tween-80 109 % of control | [3] 97 % of control | [5] 103 % of control | dose: 300.0 mg/kg/injection, schedule: Q04DX002 (ip), vehicle: saline with Tween-80 94 % of control | [9] 88 % of control

CCCCOCN1COCC1(C)C
inactive: [16] 108 % of control | [17] 106 % of control

CC(=O)C12OC(C)(C)OC1CC1C3CCC4=CC(=O)CCC4(C)C3CCC12C (stereo not drawn)
inactive: dose: 12.5 mg/kg/injection, schedule: Q04DX002 (ip), vehicle: Klucel (hydroxypropylcellulose) (HPC) 108 % of control | dose: 25.0 mg/kg/injection, schedule: Q04DX002 (ip), vehicle: Klucel (hydroxypropylcellulose) (HPC) 108 % of control | dose: 50.0 mg/kg/injection, schedule: Q04DX002 (ip), vehicle: Klucel (hydroxypropylcellulose) (HPC) 94 % of control

CC(C)(C)CC(O)Cc1ccccc1 (stereo not drawn)
inactive: [10] 93 % of control | [11] 93 % of control

Nc1nc(CNc2ccccc2)nc(Nc2ccccc2)n1
inactive: [16] 89 % of control | [17] 101 % of control | [18] 89 % of control

CCOC(=O)C(=CNc1ccccc1)C(=O)OCC
inactive: [13] 97 % of control | [14] 90 % of control | [15] 97 % of control

CCOc1ccc(NC(=O)OC(C)C)cc1
inactive: [3] 89 % of control | [5] 94 % of control | [9] 103 % of control
